Test results taken from patent US9359298B2, “Cajanine structure analogous compound, preparation method and use” (INSTITUTE OF MEDICINAL BIOTECHNOLOGY, CHINESE ACADEMY OF …, priority 2011, dated 2016).
In brackets after ≈: the same amount, converted by molar mass.

How the values were obtained:
PC12 cells [1] = assay: Neuroprotective activity assay, rotenone injury to PC12 cells (MTT); format: cell-based; conditions: Rattus norvegicus, PC-12, 48 h, 10 μM test compound, 4 μM rotenone, 48 h; Control 100.0 ± 8.9, Model 73.2 ± 7.8; read-out: rotenone (surviving PC12 cells, MTT 570 nm)
Procedure, shortened: (§1)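 Survival measured as MTT absorbance at 570 nm after 4 h dye uptake. Compounds (10 μM) were co-applied for 48 h to PC12 cells deprived of serum or exposed to 4 μM rotenone, following 24 h seeding on poly-lysine.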

PC12 cells [2] = assay: Neuroprotective activity assay, serum-deprived injury to PC12 cells (MTT); format: cell-based; conditions: Rattus norvegicus, PC-12, 48 h, 10 μM test compound, 48 h; Control 100.0 ± 9.2, Model 69.3 ± 4.1; read-out: serum-deprived (surviving PC12 cells, MTT 570 nm)
Procedure, shortened: as §1

HCV = assay: Anti-hepatitis C virus (HCV) activity assay (HCV RNA in Huh7.5 cells); format: cell-based
Method: Inoculate Huh7.5 cells into 96-well plates to a density of 3×10^4 cells/cm^2, culture for 24h, infect the cells with 45 IU/cell HCV supernatant, meanwhile, add drug solutions or solvent control for treatment.

ovariectomized rats = assay: Protective effect on bone osteoporosis in ovariectomized rats; format: in vivo; conditions: compared with raloxifene
Text: The present invention also relates to anti-osteoporotic effect of said compounds. According to literature reports, pigeonpea stilbene-type compounds belong to phytoestrogens, the anti-osteoporosis effect of natural products has to do with their estrogen-like effects.

[3] = test system: Influenza A virus (hanfang359/95); assay: Determination of anti-influenza virus activity (CPE in MDCK cells); format: cell-based; conditions: Influenza A virus, MDCK, 36 h
HIV-1 III B virus = assay: Anti-HIV activity assay (P24 antigen in MT-4 cells); format: cell-based
Coxsackie virus B6 = assay: Coxsackie virus activity assay (CPE in Vero cells); format: cell-based; conditions: Vero, read-out: COX-B6 IC50, Vero cells, about 100TCID50, CPE, Reed-Muench

Compound: COc1cc(/C=C/c2ccccc2)c(C(=O)O)c(O)c1CC=C(C)C [Compound 1, 2-hydroxy-3-isopentenyl-4-methoxy-6-[(E)-styryl]benzoic acid]
- viability at 10 µM (PC12 cells [1]): 72.3 ± 5.9%
- viability at 10 µM (PC12 cells [2]): 19.3 ± 1.6%
- EC50 (HCV; Hepatitis C virus, Huh7.5, 72 h, read-out: HCV EC50): 1.21 µg/mL (≈ 3.58 µM)
- anti-HCV viral activity (HCV; statement in words): stronger anti-HIV, HCV viral activities
- in vivo anti-osteoporotic effect (ovariectomized rats): stronger in vivo anti-osteoporotic effect than clinical drug raloxifene
- IC50 [3]: 8.9 µg/mL (≈ 26.3 µM)
- IC50 (HIV-1 III B virus; Human immunodeficiency virus 1, MT4, 96 h, read-out: HIV IC50): 0.27 µg/mL (≈ 0.798 µM)
- anti-HIV viral activity (HIV-1 III B virus; statement in words): stronger anti-HIV, HCV viral activities
- IC50 (Coxsackie virus B6): 0.9 µg/mL (≈ 2.66 µM)
